Laboratory results taken from PubChem BioAssay AID1963836 (Molecular Pharmacology Branch, DTP, NCI, 2024).
Values joined by “and” are separate entries in the source; they are usually repeats but may differ in a detail not shown here. Identical values can stand only once.

Test system: 857933-349-R-J2-PDC complex spheroid viability
Assay: Anticancer human tumor 857933-349-R-J2-PDC patient-derived colon adenocarcinoma cell line growth inhibition [POLQ]
Details: for viability, T/C: stronger effect = lower value
Method: Multicellular complex tumor spheroid response to Polymerase (POL) inhibitors (novobiocin, ART-558, RP6685) in combination with a variety of drugs and investigational agents in selected tumor cell lines
The POL inhibitors (novobiocin, ART-558, and RP6685) were evaluated both individually and in combination with standard of care and investigational anticancer small molecules within a complex spheroid model of solid tumors. . Complex spheroids include a stromal component modeled by human endothelial cells (HUVEC) and fibroblasts modeled by human mesenchymal stem cells (MSCs). The concentration ranges selected for each drug and investigational agent were based upon clinically achievable concentrations if the clinical Cmax of the agent was known.
Compounds. The drugs and investigational agents: novobiocin (NSC847541), ART-558 (NSC835418), RP-6685 (NSC848927), peposertib (NSC802822), ceralasertib (NSC780249), elimusertib (NSC800525), camonsertib (NSC841442), AZD-1390 (NSC803789), olaparib (NSC753686), talazoparib (NSC767125), rucaparib (NSC756644), sotorasib (NSC818433), MRTX-1133 (NSC836407), SN-38 (NSC673596), topotecan (NSC609699), epotoside (NSC141540), doxorubicin (NSC123127), gemcitabine (NSC613327), 5-fluorouracil (NSC19893), paclitaxel (NSC125973), vemurafenib (NSC761431), MSA-2 (NSC828583), SN-011 (NSC837082), adavosertib (NSC754352), prexasertib (NSC758257), carboplatin (NSC241240) and oxaliplatin (NSC266046), were obtained from the National Cancer Institute (NCI) Developmental Therapeutics Program Chemical Repository (21). The FDA-approved anticancer drug set is available from the Developmental Therapeutics Program at https://dtp.cancer.gov/organization/dscb/obtaining/. […] The stock solutions were prepared in dimethyl sulfoxide (DMSO, Sigma-Aldrich, St. Louis, MO, cat. D2650), except for the platinum compounds which were prepared in saline (Quality Biological, Gaithersburg, MD, cat. 114-055-101), at 800-fold the tested concentration and stored at -70 degrees C prior to their use. All drugs and investigational agents were tested over a range starting from a high concentration at or near the clinical Cmax and decreasing in half-log increments. If the clinical Cmax for an agent had not been determined, the highest concentration tested was 10 microM, except for SN-38, which was tested at a high concentration of 1 microM.
Cell Culture. All cells were maintained in an incubator at 37 degrees C and 5% CO2 with 95% humidity. The PDC lines were cultured according to standard operating procedures established by the NCI PDMR (https://pdmr.cancer.gov). Table 3 of the manuscript, lists the cell lines along with the number of the three cell types plated to form the mct-spheroids and media for tumor cell growth. After thawing, all PDC lines, except 997537-175-T-J1-PDC and 415267-285-R-J2-PDC, were cultured in Matrigel-coated flasks prepared with a working solution of 1X Ham's F-12 nutrient mix, without supplementation (Thermo Fisher Scientific, cat. 11765054), 100 U/mL penicillin-streptomycin (Thermo Fisher Scientific, cat. 15140122), and 2.5% Matrigel (Corning Inc., Corning, NY, cat. 354248) for the first three passages. The two PDC lines 997537-175-T-J1-PDC and 415267-285-R-J2-PDC were cultured on uncoated flasks. The 857933-349-R-J2-PDC line was cultured in 6C/Colon 1B media containing advanced DMEM/F-12 (Thermo Fisher Scientific, cat. 12634028), 10 mM HEPES (Thermo Fisher Scientific, cat. 15630080), 1X GlutaMAX supplement (Thermo Fisher Scientific, cat. 35050061), 0.1 mg/mL primocin (InvivoGen, San Diego, CA, cat. ant-pm-2), 10% defined fetal bovine serum, heat inactivated (HyClone Laboratories Inc., Logan, UT, cat. SH30070.03HI), 50% L-WRN conditioned media (ATCC, cat. CRL-3276), 1.25 mM N-Acetyl-L-cysteine (Sigma-Aldrich, cat. A9165), 10 mM nicotinamide (Sigma-Aldrich, cat. N0636), 1X B-27 supplement (Thermo Fisher Scientific, cat. 17504044), 1X N-2 supplement (Thermo Fisher Scientific, cat. […]
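Further: spheroids exposed to compounds for seven days before readout.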

SMILES: COc1cc2cc(C(=O)CCC(=O)O)sc2cc1OC
- viability, T/C (compound 0.0316 µM): 92.5% and 89% and 101%
- viability, T/C (compound 0.1 µM): 88.6% and 95.5% and 91.5%
- viability, T/C (compound 0.316 µM): 94.9% and 102% and 82.7%
- viability, T/C (compound 1 µM): 88.2% and 110% and 92.5%
- viability, T/C (compound 3.16 µM): 102% and 111% and 116%
- viability, T/C (compound 10 µM): 84.1% and 95% and 89.9%
- IC50 (curve of compound): > 10000 nM

SMILES: CC1COCCN1c1cc(C2(O)CC3CCC(C2)O3)c2cnn(-c3ccn[nH]3)c2n1 (stereo unspecified) + COC1C(OC(N)=O)C(O)C(Oc2ccc3c(O)c(NC(=O)c4ccc(O)c(CC=C(C)C)c4)c(=O)oc3c2C)OC1(C)C
- IC50 (curve of first compound, second compound 0.0316 µM): 249 nM
- IC50 (curve of first compound, second compound 0.1 µM): 279 nM
- IC50 (curve of first compound, second compound 0.316 µM): 334 nM
- IC50 (curve of first compound, second compound 1 µM): 285 nM
- IC50 (curve of first compound, second compound 3.16 µM): 171 nM
- IC50 (curve of first compound, second compound 10 µM): 339 nM
- viability, T/C (second compound 0.0316 µM, first compound 0.0316 µM): 76.3%
- viability, T/C (second compound 0.0316 µM, first compound 0.1 µM): 61.5%
- viability, T/C (second compound 0.0316 µM, first compound 0.316 µM): 48.2%
- viability, T/C (second compound 0.0316 µM, first compound 1 µM): 39%
- viability, T/C (second compound 0.0316 µM, first compound 3.16 µM): 40.7%
- viability, T/C (second compound 0.0316 µM, first compound 10 µM): 49.7%
- viability, T/C (second compound 0.1 µM, first compound 0.0316 µM): 111%
- viability, T/C (second compound 0.1 µM, first compound 0.1 µM): 57.7%
- viability, T/C (second compound 0.1 µM, first compound 0.316 µM): 59.4%
- viability, T/C (second compound 0.1 µM, first compound 1 µM): 37.7%
- viability, T/C (second compound 0.1 µM, first compound 3.16 µM): 40.2%
- viability, T/C (second compound 0.1 µM, first compound 10 µM): 47%
- viability, T/C (second compound 0.316 µM, first compound 0.0316 µM): 63.3%
- viability, T/C (second compound 0.316 µM, first compound 0.1 µM): 68.1%
- viability, T/C (second compound 0.316 µM, first compound 0.316 µM): 50.3%
- viability, T/C (second compound 0.316 µM, first compound 1 µM): 41%
- viability, T/C (second compound 0.316 µM, first compound 3.16 µM): 43.1%
- viability, T/C (second compound 0.316 µM, first compound 10 µM): 46.7%
- viability, T/C (second compound 1 µM, first compound 0.0316 µM): 94.3%
- viability, T/C (second compound 1 µM, first compound 0.1 µM): 58.1%
- viability, T/C (second compound 1 µM, first compound 0.316 µM): 50.4%
- viability, T/C (second compound 1 µM, first compound 1 µM): 41.2%
- viability, T/C (second compound 1 µM, first compound 3.16 µM): 49.9%
- viability, T/C (second compound 1 µM, first compound 10 µM): 51.4%
- viability, T/C (second compound 3.16 µM, first compound 0.0316 µM): 75.2%
- viability, T/C (second compound 3.16 µM, first compound 0.1 µM): 54.5%
- viability, T/C (second compound 3.16 µM, first compound 0.316 µM): 45.5%
- viability, T/C (second compound 3.16 µM, first compound 1 µM): 38.1%
- viability, T/C (second compound 3.16 µM, first compound 3.16 µM): 43.3%
- viability, T/C (second compound 3.16 µM, first compound 10 µM): 50%
- viability, T/C (second compound 10 µM, first compound 0.0316 µM): 71.5%
- viability, T/C (second compound 10 µM, first compound 0.1 µM): 63.6%
- viability, T/C (second compound 10 µM, first compound 0.316 µM): 52.8%
- viability, T/C (second compound 10 µM, first compound 1 µM): 36.7%
- viability, T/C (second compound 10 µM, first compound 3.16 µM): 45.6%
- viability, T/C (second compound 10 µM, first compound 10 µM): 47.9%

SMILES: CC1COCCN1c1cc(-c2ccnn2C)c2ccnc(-c3ccn[nH]3)c2n1 (stereo unspecified)
- viability, T/C (compound 0.0316 µM): 70% and 80.3% and 83.9%
- viability, T/C (compound 0.1 µM): 59.9% and 64.2% and 58.6%
- viability, T/C (compound 0.316 µM): 40.7% and 40% and 54.9%
- viability, T/C (compound 1 µM): 41.7% and 35.7% and 48.2%
- viability, T/C (compound 3.16 µM): 41.2% and 43.7% and 44.5%
- viability, T/C (compound 10 µM): 44.9% and 44.1% and 48%
- IC50 (curve of compound): 190 nM and 202 nM and 558 nM
